The source of these data is patent US6930127B2, “Veterinary treatment of ophthalmic disease in animals using topical tacrolimus” (Eaton Veterinary Laboratories, Inc., priority 2002, dated 2005).

The subject of series [1] is canines with keratoconjunctivitis sicca. The series is described as follows: Clinical trial of topical tacrolimus in treatment of canine keratoconjunctivitis sicca. The note with it: twice daily, 30 days. Type of series: in vivo, dogs. On the procedure:
A population of canines with keratoconjunctivitis sicca was subject to a method of treatment with a topical tacrolimus solution in order to evaluate the therapeutic effectiveness of the drug. Materials • 0.02% tacrolimus was prepared in a physiologically acceptable ointment base. • 0.02% tacrolimus was prepared in a physiologically acceptable oil base. • Schirmer Tear Test strips were employed to measure tearing. • Petrolatum eye ointment was used for patient comfort. • Commercial eyewash was used as a cleaning solution. The test group consisted of 26 dogs of various breeds from different geographic areas. […] 24 dogs were administered a dose of tacrolimus in either ointment or oil base twice daily in both eyes for 30 days. 2 dogs received the same treatment in only one eye. Petrolatum ointment was administered to some dogs as necessary for comfort. Debris was flushed from the eyes as necessary using a commercial eyewash preparation. The eyes were examined and observations recorded at days 7-14 and again at 21-30 days during treatment.

A further series concerns immune response. The note with it: 'thought to be'; cited from earlier work.
For series [2] the following is noted: cited from earlier work.

Consider `C=CC[C@@H]1/C=C(\C)C[C@H](C)C[C@H](OC)[C@H]2O[C@@](O)(C(=O)C(=O)N3CCCC[C@H]3C(=O)O[C@H](/C(C)=C/[C@@H]3CC[C@@H](O)[C@H](OC)C3)[C@H](C)[C@@H](O)CC1=O)[C@H](C)C[C@@H]2OC` [Tacrolimus], for which the “signs of ocular irritation” value in series [1] (0.02% tacrolimus in ointment or oil base, topical) was “None of the subjects exhibited signs of ocular irritation”. The “treated eyes exhibiting improvement” value in series [1] (0.02% tacrolimus in ointment or oil base, topical, 26 dogs with KCS) is 96%. In series [1] (0.02% tacrolimus in ointment or oil base, topical, 60 second STT), the “treated eyes exhibiting improved Schirmer Tear Test (STT) values” came to 92%. Besides, in series [1] (0.02% tacrolimus topical), the “additional effect: corneal scarring and pigmentation” value was “reduction in corneal scarring and pigmentation”; the “additional effect: inflammation of the conjunctiva” value is given as “reduction in inflammation of the conjunctiva”; the “effectiveness in dogs, including those where cyclosporine had previously failed” value is listed as “effective in some dogs for whom cyclosporine treatment had previously failed”. Further, the “potency relative to cyclosporine on a per gram basis” value in the series on immune response is reported as “up to 100 times”. Moreover, in series [2] (alcohols and some oils), the “solubility in alcohols and some oils” value is on record as “soluble”. Besides, in series [2] (water), the solubility in water entry was “practically insoluble”.
